In patent US20230102554A1 (GB002, INC., priority 2019, published 2023):
Where a name gives a salt, the structure may show the parent alone.

How the values were obtained:
[1] = target: T1, Human PDGFRβ, cytoplasmic domain (GST-PDGFRβ) (Homo sapiens, UniProt P09619); test: Human PDGFRβ biochemical inhibition assay (off-chip Mobility Shift Assay)
T1 construct: made in house
Method in brief: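 GST-tagged cytoplasmic domain (aa 557-1106) from baculovirus was incubated 1 h at room temperature with compound, CSKtide, ATP at Km and Mg²⁺ in HEPES buffer, pH 7.5. Phosphorylated and unphosphorylated peptide were separated by off-chip mobility shift, and the product ratio P/(P+S) gave percent inhibition.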

[2] = target: T2, Human PDGFRα, cytoplasmic domain (GST-PDGFRα) (Homo sapiens, UniProt P16234); test: Human PDGFRα biochemical inhibition assay (off-chip Mobility Shift Assay)
T2 construct: made in house
T2 sequence (P16234 550-1089 T674I): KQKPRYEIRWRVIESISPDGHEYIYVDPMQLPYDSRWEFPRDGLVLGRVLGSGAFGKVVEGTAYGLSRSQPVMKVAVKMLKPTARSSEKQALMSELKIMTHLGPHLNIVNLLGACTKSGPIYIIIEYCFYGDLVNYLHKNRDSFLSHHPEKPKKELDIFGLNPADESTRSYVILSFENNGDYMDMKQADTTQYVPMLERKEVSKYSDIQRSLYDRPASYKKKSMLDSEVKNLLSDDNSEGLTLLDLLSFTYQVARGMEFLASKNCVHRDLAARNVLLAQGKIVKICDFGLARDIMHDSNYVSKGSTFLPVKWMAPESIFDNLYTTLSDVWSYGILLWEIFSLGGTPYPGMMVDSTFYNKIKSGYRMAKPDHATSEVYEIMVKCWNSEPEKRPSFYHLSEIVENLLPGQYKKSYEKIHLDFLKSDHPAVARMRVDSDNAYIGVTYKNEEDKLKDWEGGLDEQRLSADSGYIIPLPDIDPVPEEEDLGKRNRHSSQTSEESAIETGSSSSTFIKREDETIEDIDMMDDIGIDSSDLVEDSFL

T1 sequence (P09619 with tags, fused parts or gaps): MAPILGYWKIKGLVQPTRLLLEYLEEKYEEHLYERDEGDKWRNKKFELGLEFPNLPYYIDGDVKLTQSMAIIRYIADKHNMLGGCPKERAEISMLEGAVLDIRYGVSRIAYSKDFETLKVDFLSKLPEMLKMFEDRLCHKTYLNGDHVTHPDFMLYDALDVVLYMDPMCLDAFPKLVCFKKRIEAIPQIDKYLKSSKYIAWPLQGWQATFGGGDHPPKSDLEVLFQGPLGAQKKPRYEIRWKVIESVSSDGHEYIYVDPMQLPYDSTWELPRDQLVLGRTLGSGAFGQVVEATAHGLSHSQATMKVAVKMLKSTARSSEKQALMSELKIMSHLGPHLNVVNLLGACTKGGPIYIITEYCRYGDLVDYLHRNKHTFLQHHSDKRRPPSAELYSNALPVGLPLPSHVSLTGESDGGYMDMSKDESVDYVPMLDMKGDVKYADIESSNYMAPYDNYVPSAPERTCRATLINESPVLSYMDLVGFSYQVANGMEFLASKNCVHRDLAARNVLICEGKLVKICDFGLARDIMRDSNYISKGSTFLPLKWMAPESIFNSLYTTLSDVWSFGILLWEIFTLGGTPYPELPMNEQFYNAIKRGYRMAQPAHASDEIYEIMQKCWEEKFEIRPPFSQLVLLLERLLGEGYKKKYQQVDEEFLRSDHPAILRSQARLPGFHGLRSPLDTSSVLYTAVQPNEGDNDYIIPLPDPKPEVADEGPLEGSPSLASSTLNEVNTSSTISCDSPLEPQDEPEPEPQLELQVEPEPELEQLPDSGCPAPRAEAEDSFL

IC50 [1] | IC50 [2] | SMILES
≥ 1000 nM | 300 to 1000 nM | CCn1cc2ncc(N[C@@H](C)c3cccc(NC(=O)c4cnc5[nH]nc(C)c5c4)c3)nc2n1 [Compound 61, (S)-N-(3-(1-((2-ethyl-2H-pyrazolo[3,4-b]pyrazin-6-yl)amino)ethyl)phenyl)-3-methyl-1H-pyrazolo[3,4-b]pyridine-5-carboxamide]
< 300 nM | < 300 nM | CCNc1ncc(C(=O)Nc2cccc([C@H](C)Nc3cnc4cn(CC)nc4n3)c2)cc1Cl [Compound 420, (S)-5-chloro-N-(3-(1-((2-ethyl-2H-pyrazolo[3,4-b]pyrazin-6-yl)amino)ethyl)phenyl)-6-(ethylamino)nicotinamide]
≥ 1000 nM | 300 to 1000 nM | CCn1cc2ncc(N[C@@H](C)c3cccc(NC(=O)c4ccc(N5CCN(C)CC5)c(F)c4)c3)nc2n1 [Compound 367, (S)-N-(3-(1-((2-ethyl-2H-pyrazolo[3,4-b]pyrazin-6-yl)amino)ethyl)phenyl)-3-fluoro-4-(4-methylpiperazin-1-yl) benzamide]
< 300 nM | < 300 nM | CCn1cc2ncc(N[C@@H](C)c3cc(NC(=O)c4cnc(N5CCN(C)CC5)c(C)c4)ccc3F)nc2n1 [Compound 432, (S)-N-(3-(1-((2-ethyl-2H-pyrazolo[3,4-b]pyrazin-6-yl)amino)ethyl)-4-fluorophenyl)-5-methyl-6-(4-methylpiperazin-1-yl)nicotinamide]
< 300 nM | < 300 nM | CCn1cc2ncc(N[C@@H](C)c3cccc(NC(=O)c4ccc(OC)c(F)c4)c3)nc2n1 [Compound 359, (S)-N-(3-(1-((2-ethyl-2H-pyrazolo[3,4-b]pyrazin-6-yl)amino)ethyl)phenyl)-3-fluoro-4-methoxybenzamide]
< 300 nM | < 300 nM | CCn1cnc2ncc(C(=O)Nc3cccc([C@H](C)Nc4cnc5cnn(C)c5n4)c3)cc21 [Compound 265, (S)-1-ethyl-N-(3-(1-((1-methyl-1H-pyrazolo[3,4-b]pyrazin-6-yl)amino)ethyl)phenyl)-1H-imidazo[4,5-b]pyridine-6-carboxamide]
< 300 nM | < 300 nM | Cc1cc(C(=O)Nc2cccc([C@H](C)Nc3cnc4cnn(C)c4n3)c2)cnc1N1CCN(C)CC1 [Compound 195, (S)-5-methyl-N-(3-(1-((1-methyl-1H-pyrazolo[3,4-b]pyrazin-6-yl)amino)ethyl)phenyl)-6-(4-methylpiperazin-1-yl)nicotinamide]
300 to 1000 nM | < 300 nM | CCn1cc2ncc(N[C@@H](C)c3cccc(NC(=O)Nc4cnc(NC)c(C)c4)c3)nc2n1 [Compound 743, (S)-1-(3-(1-((2-ethyl-2H-pyrazolo[3,4-b]pyrazin-6-yl)amino)ethyl)phenyl)-3-(5-methyl-6-(methylamino)pyridin-3-yl)urea]
300 to 1000 nM | < 300 nM | CCn1cc2ncc(N[C@@H](C)c3cccc(NC(=O)c4cnc(NC(C)C)c(C)c4)c3)nc2n1 [Compound 371, (S)-N-(3-(1-((2-ethyl-2H-pyrazolo[3,4-b]pyrazin-6-yl)amino)ethyl)phenyl)-6-(isopropylamino)-5-methylnicotinamide]
300 to 1000 nM | < 300 nM | CCn1cc2ncc(N[C@@H](C)c3cccc(NC(=O)c4ccc(CN5CCC(F)(F)CC5)c(C)c4)c3)nc2n1 [Compound 476, (S)-4-((4,4-difluoropiperidin-1-yl)methyl)-N-(3-(1-((2-ethyl-2H-pyrazolo[3,4-b]pyrazin-6-yl)amino)ethyl)phenyl)-3-methylbenzamide]
< 300 nM | < 300 nM | CCn1cc2ncc(N[C@@H](C)c3cccc(NC(=O)c4cnc(N5CCN(C)CC5)c(C(F)(F)F)c4)c3)nc2n1 [Compound 422, (S)-N-(3-(1-((2-ethyl-2H-pyrazolo[3,4-b]pyrazin-6-yl)amino)ethyl)phenyl)-6-(4-methylpiperazin-1-yl)-5-(trifluoromethyl)nicotinamide]

Continued, compound first:

SMILES | IC50 [1] | IC50 [2]
C[C@H](Nc1cnc2cnn(C)c2n1)c1cccc(NC(=O)c2ccc(OC(F)F)nc2)c1 [Compound 118, (S)-6-(difluoromethoxy)-N-(3-(1-((1-methyl-1H-pyrazolo[3,4-6]pyrazin-6-yl)amino)ethyl)phenyl)nicotinamide] | < 300 nM | < 300 nM
CCn1cc(C(=O)Nc2cccc([C@H](C)Nc3cnc4[nH]cc(C)c4n3)c2)cn1 [Compound 574, (S)-1-ethyl-N-(3-(1-((7-methyl-5H-pyrrolo[2,3-b]pyrazin-2-yl)amino)ethyl)phenyl)-1H-pyrazole-4-carboxamide] | < 300 nM | < 300 nM
CCNc1ncc(C(=O)Nc2cccc([C@H](C)Nc3cnc4cnn(C)c4n3)c2)cc1C [Compound 194, (S)-6-(ethylamino)-5-methyl-N-(3-(1-((1-methyl-1H-pyrazolo[3,4-b]pyrazin-6-yl)amino)ethyl)phenyl) nicotinamide] | < 300 nM | < 300 nM
Cc1cncc(C(=O)Nc2cccc([C@H](C)Nc3cnc4cccc(Cl)c4n3)c2)c1 [Compound 37, (S)-N-(3-(1-((8-chloroquinoxalin-2-yl)amino)ethyl)phenyl)-5-methylnicotinamide] | < 300 nM | < 300 nM
C[C@H](Nc1cnc2cnn(C)c2n1)c1cccc(NC(=O)c2cncc(C3CC3)c2)c1 [Compound 105, (S)-5-cyclopropyl-N-(3-(1-((1-methyl-1H-pyrazolo[3,4-b]pyrazin-6-yl)amino)ethyl)phenyl)nicotinamide] | < 300 nM | < 300 nM
COc1cccc2ncc(N[C@@H](C)c3cccc(NC(=O)c4cncc(C)c4)c3)cc12 [Compound 27, (S)-N-(3-(1-((5-methoxyquinolin-3-yl)amino)ethyl)phenyl)-5-methylnicotinamide] | < 300 nM | < 300 nM
Cc1cc2ncc(N[C@@H](C)c3cccc(NC(=O)c4ccc(OC(F)F)nc4)c3)nc2s1 [Compound 608, (S)-6-(difluoromethoxy)-N-(3-(1-((6-methylthieno[2,3-b]pyrazin-3-yl)amino)ethyl)phenyl)nicotinamide] | < 300 nM | < 300 nM
Cc1cc(C(=O)Nc2cccc([C@H](C)Nc3cnc4cnn(C)c4n3)c2)ccc1C(=O)OCCN1CCCC1 [Compound 268, 2-(pyrrolidin-1-yl)ethyl (S)-2-methyl-4-((3-(1-((1-methyl-1H-pyrazolo[3,4-b]pyrazin-6-yl)amino)ethyl)phenyl)carbamoyl) benzoate] | < 300 nM | < 300 nM
C[C@H](Nc1cnc2cnn(C)c2n1)c1cccc(NC(=O)c2cnn(C3CCC3)c2)c1 [Compound 151, (S)-1-cyclobutyl-N-(3-(1-((1-methyl-1H-pyrazolo[3,4-b]pyrazin-6-yl)amino)ethyl)phenyl)-1H-pyrazole-4-carboxamide] | < 300 nM | < 300 nM
Cc1cncc(C(=O)Nc2cccc([C@H](C)Nc3cnc4ccccc4n3)c2)c1 [Compound 4, (5)-5-methyl-N-(3-(1-(quinoxalin-2-ylamino)ethyl)phenyl)nicotinamide trifluoroacetate] | < 300 nM | < 300 nM
CCn1cc2ncc(N[C@@H](C)c3cc(NC(=O)c4cnc(C)c(C)c4)ccc3C)nc2n1 [Compound 509, (S)-N-(3-(1-((2-ethyl-2H-pyrazolo[3,4-b]pyrazin-6-yl)amino)ethyl)-4-methylphenyl)-5,6-dimethylnicotinamide] | < 300 nM | < 300 nM
CCn1cc2ncc(N[C@@H](C)c3cc(NC(=O)Cc4ccc(C(C)(C)O)cn4)ccc3C)nc2n1 [Compound 705, (S)-N-(3-(1-((2-ethyl-2H-pyrazolo[3,4-b]pyrazin-6-yl)amino)ethyl)-4-methylphenyl)-2-(5-(2-hydroxypropan-2-yl)pyridin-2-yl)acetamide] | ≥ 1000 nM | ≥ 1000 nM
Cc1cncc(C(=O)Nc2cccc([C@H](C)Nc3cnc4[nH]cc(C5CC5)c4n3)c2)c1 [Compound 569, (S)-N-(3-(1-((7-cyclopropyl-5H-pyrrolo[2,3-b]pyrazin-2-yl)amino)ethyl)phenyl)-5-methylnicotinamide] | < 300 nM | 300 to 1000 nM
Cc1cc(C(=O)Nc2cccc([C@H](C)Nc3cnc4cnn(C)c4n3)c2)cnc1NC(C)C [Compound 198, (S)-6-(isopropylamino)-5-methyl-N-(3-(1-((1-methyl-1H-pyrazolo[3,4-b]pyrazin-6-yl)amino)ethyl)phenyl) nicotinamide] | < 300 nM | < 300 nM
COc1ccc(-n2ncc3ncc(N[C@@H](C)c4cccc(NC(=O)c5cncc(C)c5)c4)nc32)cc1OC [Compound 185, (S)-N-(3-(1-((1-(3,4-dimethoxyphenyl)-1H-pyrazolo[3,4-b]pyrazin-6-yl)amino)ethyl)phenyl)-5-methylnicotinamide] | < 300 nM | < 300 nM
CCNc1ncc(C(=O)Nc2ccc(C)c([C@H](C)Nc3cnc4cn(CC)nc4n3)c2)cc1C [Compound 513, (S)-N-(3-(1-((2-ethyl-2H-pyrazolo[3,4-b]pyrazin-6-yl)amino)ethyl)-4-methylphenyl)-6-(ethylamino)-5-methylnicotinamide] | < 300 nM | < 300 nM
Cc1cncc(C(=O)Nc2cccc([C@H](C)Nc3cnc4cc(F)c(F)cc4c3)c2)c1 [Compound 30, (S)-N-(3-(1-((6,7-difluoroquinolin-3-yl)amino)ethyl)phenyl)-5-methylnicotinamide] | 300 to 1000 nM | < 300 nM
C[C@H](Nc1cnc2[nH]cc(-c3cnn(C)c3)c2n1)c1cccc(NC(=O)c2cnc(C3CC3)s2)c1 [Compound 578, (S)-2-cyclopropyl-N-(3-(1-((7-(1-methyl-1H-pyrazol-4-yl)-5H-pyrrolo[2,3-b]pyrazin-2-yl)amino)ethyl)phenyl)thiazole-5-carboxamide] | < 300 nM | < 300 nM
CSc1ccc(C(=O)Nc2cccc([C@H](C)Nc3cnc4cnn(C)c4n3)c2)cc1SC [Compound 269, (S)-N-(3-(1-((1-methyl-1H-pyrazolo[3,4-b]pyrazin-6-yl)amino)ethyl)phenyl)-3,4-bis(methylthio)benzamide] | < 300 nM | < 300 nM
